Measurements published in patent US11224627B2, “Method for culturing cells of Acrochaetium moniliforme red algae, method for obtaining an extract of the biomass thereof, and use of same in cosmetics” (SOCIETE D'EXPLOITATION DE PRODUITS POUR LES INDUSTRIES …, priority 2016, dated 2022).
Marks after values point to notes of the source that are not given here.

What was measured:
[1] = system: Human fibroblasts of the dermal follicular papilla; experiment: Viability measured using WST-8 reagent; type: cell-based; settings: 2 μM
5-α-reductase enzyme = experiment: Production of dihydrotestosterone (DHT) from testosterone in a cellular model, revealing 5-α-reductase activity; type: cell-based, human; settings: 2 μM
Method: This model is a cellular model, that is more robust than models on purified enzyme.
Human fibroblasts of the dermal follicular papilla (person) were seeded into collagen-coated culture plates in the presence of a specific growth medium. After three days, they were pretreated for 24 hours with the positive reference [Finasteride (F) at 2 μM and 1 μM] and each of the algal extracts to be tested (Table 2). The fibroblasts were then stimulated with testosterone at 0.5 μM before undergoing a post-treatment for 24 hours. Each test was carried out in sextuplicate.
The viability was measured using a WST-8 reagent and the conversion of the testosterone was then evaluated by measuring the intracellular concentration of (DHT). The viability was expressed relative to that of the control without testosterone (control T0). The amount of (DHT) was standardized relative to the viability results and then related to the control condition with testosterone (0.5 μM) control (T1) in order to calculate a percentage effect, and also related to the control conditions without testosterone in order to calculate a percentage protection.

SMILES: CC(C)(C)NC(=O)[C@H]1CC[C@H]2[C@@H]3CC[C@H]4NC(=O)C=C[C@]4(C)[C@H]3CC[C@]12C [F, Finasteride]
- WST-8 OD (AU) ([1]; fibroblasts stimulated with testosterone 0.5 μM, 24 h pre- and 24 h post-treatment): 2.19 +/− 0.27^(a) AU
- WST-8 Viability ([1]; relative to control without testosterone (T0)): 93%^(a)
- DHT Standardized concentration (pg/ml/AU) (5-α-reductase enzyme; DHT standardized relative to viability (WST-8 OD)): 5.68 +/− 0.91^(a) pg/ml/AU
- DHT Concentration (pg/ml) (5-α-reductase enzyme; intracellular DHT, testosterone 0.5 μM): 12.38 +/− 2.35^(a) pg/ml
- DHT Restoration (5-α-reductase enzyme; related to control without testosterone (T0 = 100%, T1 = 0%)): 46%*
- DHT Effect (5-α-reductase enzyme; relative to control with testosterone 0.5 μM (T1)): −28%*
